The subject of this data set is semen. The experiment in a line: Biocompatibility with semen (non-spermicidal; mobility and viability of the spermatozoa). The format is cell-based, swine. The text has this:
A summary of the tests conducted is given in the table at the end of the description.

Where two headings read alike, the source gives them in different places.

With Tween 85, the Bio-compatibility result was “Yes”.

As to sorbitan monolaurate [Span 20], the “effect on the mobility and viability of the spermatozoa” value was “lack of any harmful effect”; the “spermicidal role with respect to semen” value is reported as “non-spermicidal”. Further, the Bio-compatibility result (surfactant concentration 0.5%, matrix Suppocire DM) is reported as “Yes”. In addition, the Bio-compatibility entry (surfactant concentration 1%, matrix Gelucire 43/01) is recorded as “Yes”. The Bio-compatibility result (surfactant concentration 1%, matrix Suppocire DM) is “Yes”.

(Values after patent US20100173278A1, “MICROCAPSULES CONTAINING MAMMALS' SPERMATOZOIDS, INSEMINATION DOSE CONTAINING SAME AND METHOD FOR OBTAINING SAME” (Cooperative Bretonne D'Insemination Artificielle Porcine, priority 2007, published 2010).)
